In the supplement of paper PMC10331698:
± gives the standard deviation of the averaged measurements.

Columns and labels:
Experiment in all cases: level (log10 ratio to DMSO vehicle control); higher = higher biomarker level / cell amount than vehicle control
Settings in all cases: in DMSO
[1] = compound: COC(=O)CCC(F)(F)C(F)(F)C(F)(F)C(F)(F)F [Methyl 2H,2H,3H,3H-perfluoroheptanoate]
Description: (§1)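 BioMAP Diversity Plus panel of 12 human primary cell co-culture systems (3C, 4H, LPS, SAg, BT, BF4T, BE3C, CASM3C, HDF3CGF, KF3CT, MyoF, Mphg). Compounds were added 1 h before stimulation and left for 24 h (MyoF 48 h; BT 72 h for soluble read-outs or 6 d for IgG). Biomarkers were read by ELISA, cytotoxicity by SRB, PBMC viability and proliferation by Alamar Blue. Each well value was divided by the mean of 8 DMSO control wells on the same plate and log10 transformed; duplicate blinded samples were tested at 4 concentrations.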

[2] = compound: NCC(F)(F)C(F)(F)C(F)(F)C(F)(F)C(F)(F)C(F)(F)C(F)(F)F [1H,1H-Perfluorooctylamine]
Description: as §1

[3] = compound: C=CC(=O)OCC(F)(F)C(F)(F)C(F)(F)C(F)(F)C(F)(F)C(F)(F)C(F)(F)F [1H,1H-Perfluorooctyl acrylate]
Description: as §1

[4] = compound: OCC(F)(F)OC(F)(F)C(F)(F)OC(F)(F)CO [1H,1H,8H,8H-Perfluoro-3,6-dioxaoctane-1,8-diol]
Description: as §1

[5] = compound: CCN(CCO)S(=O)(=O)C(F)(F)C(F)(F)C(F)(F)C(F)(F)C(F)(F)C(F)(F)C(F)(F)C(F)(F)F [N-Ethyl-N-(2-hydroxyethyl)perfluorooctanesulfonamide]
Description: as §1

Perfluoro-1-iodohexane = compound: FC(F)(F)C(F)(F)C(F)(F)C(F)(F)C(F)(F)C(F)(F)I [Perfluoro-1-iodohexane]
Description: as §1

[6] = compound: O=C(O)C(F)(F)C(F)(F)C(F)(F)OC(F)(C(F)(F)F)C(F)(F)F [Perfluoro-4-isopropoxybutanoic acid]
Description: as §1

| Test System | level (log10) ([1]; 6700 nM) | level (log10) ([1]; 20000 nM) | level (log10) ([1]; 60000 nM) | level (log10) ([2]; 6700 nM) | level (log10) ([2]; 20000 nM) | level (log10) ([2]; 60000 nM) | level (log10) ([3]; 6700 nM) | level (log10) ([3]; 20000 nM) | level (log10) ([3]; 60000 nM) | level (log10) ([4]; 6700 nM) | level (log10) ([4]; 20000 nM) | level (log10) ([4]; 60000 nM) | level (log10) ([5]; 6700 nM) | level (log10) ([5]; 20000 nM) | level (log10) (Perfluoro-1-iodohexane; 6700 nM) | level (log10) (Perfluoro-1-iodohexane; 20000 nM) | level (log10) (Perfluoro-1-iodohexane; 60000 nM) | level (log10) ([6]; 6700 nM) | level (log10) ([6]; 20000 nM) | level (log10) ([6]; 60000 nM) |
| --- | --- | --- | --- | --- | --- | --- | --- | --- | --- | --- | --- | --- | --- | --- | --- | --- | --- | --- | --- | --- |
| BF4T:uPA | -0.0055 ± 0.026 | 0.0015 ± 0.012 | -0.0145 ± 0.005 | -0.0085 ± 0.012 | -0.016 ± 0.016 | -0.0155 ± 0.00071 | -0.002 ± 0.0014 | 0.0035 ± 0.00071 | 0.001 ± 0.0042 | -0.0065 ± 0.028 | -0.0065 ± 0.03 | -0.007 ± 0.03 | 0.008 ± 0.0028 | 0.0055 ± 0.012 | -0.0075 ± 0.013 | -0.016 ± 0.024 | -0.0165 ± 0.0035 | -0.0085 ± 0.00071 | -0.02 ± 0.0085 | 0.0085 ± 0.03 |
| SAg:CCL2/MCP-1 | 0 ± 0.014 | -0.027 ± 0.0014 | -0.0015 ± 0.0035 | -0.0255 ± 0.012 | -0.0145 ± 0.0064 | -0.0035 ± 0.025 | -0.014 ± 0.0071 | -0.025 ± 0.0071 | 0.001 ± 0.024 | 0.0085 ± 0.005 | -0.0105 ± 0.012 | 0.011 ± 0.037 | -0.0055 ± 0.005 | -0.091 ± 0.023 | 0.006 ± 0.018 | -0.0045 ± 0.021 | 0.005 ± 0.05 | -0.007 ± 0.021 | 0.006 ± 0.016 | 0.039 ± 0.02 |
| LPS:CD62E/E-Selectin | -0.0315 ± 0.0021 | -0.034 ± 0.0014 | 0.0015 ± 0.013 | -0.017 ± 0.03 | -0.005 ± 0.033 | 0.008 ± 0.017 | 0.0005 ± 0.0021 | 0.0095 ± 0.0092 | 0.0115 ± 0.011 | -0.0065 ± 0.0078 | -0.0155 ± 0.015 | 0.003 ± 0.0057 | 0.071 ± 0.02 | 0.073 ± 0.0042 | -0.0115 ± 0.0035 | -0.0175 ± 0.011 | 0.015 ± 0.023 | -0.004 ± 0.013 | -0.013 ± 0.048 | 0.001 ± 0.021 |
| 3C:Proliferation | -0.035 ± 0.0028 | -0.029 ± 0.018 | 0.018 ± 0.03 | 0.004 ± 0.05 | 0.004 ± 0.047 | -0.0485 ± 0.063 | -0.015 ± 0.017 | -0.0805 ± 0.032 | -0.214 ± 0.033 | -0.066 ± 0.088 | 0.037 ± 0.035 | -0.0475 ± 0.064 | -0.267 ± 0.087 | -0.947 ± 0.17 | -0.0215 ± 0.0064 | -0.0205 ± 0.013 | -0.041 ± 0.041 | -0.0195 ± 0.05 | 0.002 ± 0.098 | -0.0325 ± 0.046 |
| LPS:CXCL8/IL-8 | -0.0075 ± 0.023 | -0.016 ± 0.0071 | 0.022 ± 0.016 | -0.0315 ± 0.011 | -0.0265 ± 0.0035 | -0.0105 ± 0.033 | 0.004 ± 0.0042 | 0.0185 ± 0.0064 | 0.013 ± 0.016 | 0.002 ± 0.0071 | 0.0075 ± 0.015 | 0.0075 ± 0.039 | 0.039 ± 0.0042 | -0.003 ± 0.0028 | -0.0045 ± 0.015 | 0.005 | 0.015 ± 0.017 | 0.0515 ± 0.0021 | 0.0935 ± 0.035 | 0.134 ± 0.018 |
| LPS:CD40 | -0.017 ± 0.041 | 0.003 ± 0.051 | -0.015 ± 0.078 | -0.0195 ± 0.019 | -0.0095 ± 0.023 | -0.022 ± 0.04 | 0.0745 ± 0.063 | 0.039 ± 0.071 | -0.0125 ± 0.097 | 0.006 ± 0.027 | 0.017 ± 0.0028 | 0.0005 ± 0.03 | 0.0735 ± 0.022 | 0.122 ± 0.0042 | 0.058 ± 0.0014 | 0.0375 ± 0.005 | -0.0135 ± 0.061 | 0.012 ± 0.041 | -0.011 ± 0.018 | -0.0405 ± 0.023 |
| BT:PBMC Cytotoxicity | 0.032 ± 0.014 | 0.0045 ± 0.0092 | 0.0045 ± 0.021 | -0.0095 ± 0.005 | -0.0065 ± 0.005 | -0.0045 ± 0.036 | -0.032 ± 0.071 | -0.0405 ± 0.056 | -0.092 ± 0.068 | 0.003 ± 0.017 | -0.0035 ± 0.013 | -0.009 | -0.003 ± 0.027 | -0.0615 ± 0.0035 | 0.042 ± 0.014 | -0.0045 ± 0.022 | 0.0285 ± 0.0035 | 0.02 ± 0.0028 | -0.0165 ± 0.0021 | 0.056 ± 0.016 |
| BT:sTNF-alpha | 0.0125 ± 0.042 | -0.105 ± 0.055 | 0.0165 ± 0.12 | 0.0435 ± 0.1 | 0.057 ± 0.023 | -0.0375 ± 0.076 | -0.029 ± 0.027 | -0.0585 ± 0.044 | -0.19 ± 0.043 | 0.17 ± 0.053 | 0.023 ± 0.19 | -0.036 ± 0.1 | -0.031 ± 0.082 | -0.312 ± 0.1 | 0.009 ± 0.031 | -0.0095 ± 0.14 | -0.0015 ± 0.16 | -0.0005 ± 0.076 | 0.026 ± 0.083 | 0.085 ± 0.078 |
| 4H:SRB | 0.0075 ± 0.022 | 0.006 ± 0.0057 | -0.017 ± 0.0099 | -0.003 ± 0.0042 | 0.0005 ± 0.011 | 0.003 ± 0.042 | 0.003 ± 0.016 | 0.0015 ± 0.013 | 0.0045 ± 0.0064 | -0.014 ± 0.0099 | -0.0195 ± 0.015 | -0.047 ± 0.0071 | -0.016 ± 0.0057 | -0.0605 ± 0.029 | -0.0065 ± 0.011 | -0.008 ± 0.0042 | -0.0105 ± 0.0035 | -0.0085 ± 0.021 | -0.008 ± 0.023 | -0.0275 ± 0.019 |
| 3C:CXCL9/MIG | -0.011 ± 0.011 | -0.0115 ± 0.012 | -0.0055 ± 0.015 | 0.0025 ± 0.0021 | -0.021 ± 0.0042 | -0.0205 ± 0.005 | 0.0015 ± 0.0035 | -0.002 ± 0.014 | 0.0115 ± 0.005 | -0.0025 ± 0.005 | -0.004 ± 0.0071 | 0.0015 ± 0.011 | -0.013 ± 0.0085 | -0.006 ± 0.0085 | 0.0045 ± 0.025 | 0.007 ± 0.014 | 0.0075 ± 0.029 | -0.0015 ± 0.0078 | -0.0085 ± 0.0021 | 0.0105 ± 0.0035 |
| BE3C:CXCL11/I-TAC | -0.0175 ± 0.012 | -0.011 ± 0.018 | -0.0095 ± 0.00071 | 0.0105 ± 0.005 | -0.012 ± 0.011 | -0.0105 ± 0.005 | 0.0115 ± 0.00071 | 0.016 ± 0.0099 | 0.009 ± 0.0014 | 0.007 ± 0.0014 | 0.0185 ± 0.0021 | 0.009 ± 0.014 | -0.006 ± 0.023 | -0.0035 ± 0.029 | -0.0005 ± 0.0021 | 0.002 ± 0.0057 | 0.0175 ± 0.0092 | -0.0095 ± 0.005 | 0.008 ± 0.0014 | 0.018 ± 0.0099 |
| LPS:CD106/VCAM-1 | -0.0265 ± 0.011 | -0.0265 ± 0.00071 | -0.0085 ± 0.021 | -0.006 ± 0.023 | -0.015 ± 0.013 | -0.0135 ± 0.0092 | -0.0045 ± 0.011 | -0.0165 ± 0.0021 | -0.0145 ± 0.0078 | 0.0185 ± 0.033 | -0.02 ± 0.0042 | -0.013 ± 0.033 | -0.0195 ± 0.023 | -0.0395 ± 0.012 | -0.031 ± 0.0057 | -0.0145 ± 0.018 | -0.029 ± 0.0028 | -0.0015 ± 0.016 | -0.0075 ± 0.0078 | -0.0095 ± 0.028 |
| BF4T:SRB | -0.002 ± 0.0028 | 0.003 ± 0.0028 | -0.003 ± 0.0014 | -0.002 ± 0.0042 | -0.005 ± 0.013 | -0.0005 ± 0.016 | -0.003 | -0.0055 ± 0.011 | 0.002 ± 0.025 | -0.0045 ± 0.013 | -0.0065 ± 0.005 | -0.0055 ± 0.0021 | -0.016 ± 0.0071 | -0.027 ± 0.018 | -0.006 ± 0.0085 | -0.011 ± 0.011 | -0.0135 ± 0.016 | -0.007 ± 0.0057 | -0.015 | -0.005 ± 0.0099 |
